The pIC50 is the IC50 on a negative log10 scale, so that one unit is a factor of ten. The term half-life denotes the time in which the quantity being followed falls by half. As a reminder, the efflux ratio is a quotient of directional permeabilities that is used to spot active efflux. By Papp A→B is commonly meant how fast a substance crosses the layer from the apical side. A low value points to slow passage. By Papp B→A is commonly meant the apparent permeability from the basolateral to the apical side of a cell layer.

One data set has as its system MDCKII-MDR1 cells. The experiment in a line: MDCKII-MDR1 cell permeability assay. Type of data set: in vitro ADME. The settings on record: 1 μM test compound, 2 h. Here is the method:
(§1) 50 μL of MDCKII-MDR1 cell suspension with a density of 1.56×10^6 cells/mL was seeded into a Transwell well of a 96-well plate, and the plate was cultured in a cell incubator at 37° C. in 5% CO2. […] The medium in Transwell was discarded, and HBSS equilibration solution was added and incubated at 37° C. for 30 min. Subsequently, an apical to basolateral drug transport rate assay was performed by adding 1 μM test compound solution to the Transwell AB side and a blank equilibration solution to the BL side. When the basolateral to apical drug transport rate assay was performed, the operation steps were reversed. Subsequently, the cells were placed in an incubator for 2 h. After the incubation, samples were taken from the basolateral and apical respectively, and after centrifugation, the supernatant was subjected to LC-MS/MS analysis, and the apparent permeability coefficient (Papp) was calculated, the results of which are shown in Table 5.

The nature of data set [1]: Metabolic stability in liver microsome. Type of data set: in vitro ADME. The settings on record: 0.5 mg/mL CD1 mouse liver microsome, 0.5 μM test compound, NADPH and UDPGA, 37° C. Here is the method: 0.5 mg/mL CD1 mouse liver microsome solution, 0.5 μM test compound, 1.0 mM reduced nicotinamide adenine dinucleotide phosphate (NADPH), and 1.0 mM uridine diphosphate-A-glucuronic acid (UDPGA) were added to the incubation plate and mixed, and the plate was incubated at 37° C. for 0, 30, 60, 120 min separately. The positive control group was set as 0.5 μM CYP3A4 probe substrate-testosterone and 0.5 μM UGT probe substrate-7-hydroxycoumarin incubated with microsomes for 0 and 120 min in the presence of NADPH and UDPGA; the negative control group (NC) was set as the test substance incubated with microsomes for 0 and 120 min without any coenzyme. After the reaction was terminated by adding pre-cooled methanol at each termination time, the reaction mixture was centrifuged at 4000 rpm for 10 min, the supernatant was taken and the remaining amount of the parent drug in the sample was measured by LC-MS/MS, the results of which are shown in Table 4.

The next data set has as its target PARP7 (Homo sapiens (Human), UniProt Q7Z3E1). The experiment in a line: Enzymatic biochemical assay of PARP (chemiluminescence detection kit), PARP7. The settings on record: read-out: Inhibitory activity against PAPR7 (IC50). Here is the method: (§2) This assay adopted PARP1, TNKS1, TNKS2, PARP7 and PARP14 chemiluminescence detection kits (BPS, Cat No. 80551/80552/80573/80578/79729/80568) for enzymatic biochemical assay of PARP. The specific scheme was as follows: the 1× histone mixture was added to a 96-well plate at 50 μL per well, and the plate was incubated overnight at 4° C. The next day, after the plate was washed with PBST, 200 μL of blocking buffer per well was added, and the plate was incubated for 90 min. After the plate was washed with PBST again, 5 μL of inhibitor, 20 μL of 1×PARP buffer and 25 μL of […] were added to each well, and the plate was incubated at room temperature for 30 min. After the plate was washed with PBST, 100 μL of Elisa ECL substrate A and B mixture was added to each well, chemiluminescence value was immediately read using a plate reader, and IC50 values were calculated.

The target of the next data set is PARP1 (Homo sapiens (Human), UniProt P09874). The data set can be described thus: Enzymatic biochemical assay of PARP (chemiluminescence detection kit), PARP1. Here is the method: as §2
The next data set deals with NCI-H1373 cells. The data set can be described thus: NCI-H1373 cell proliferation inhibition assay. Type of data set: cell-based. The settings on record: Homo sapiens, NCI-H1373, 144 h; 6 days of incubation, Cell Titer Blue. Here is the method:
Human lung adenocarcinoma cells NC-H1373 (ATCC, CRL-5866M) were cultured in a cell incubator at 37° C. and 5% CO2 using RPMI-1640 medium containing 10% FBS and 1% […]. The cells in the logarithmic growth phase were counted by digestion and inoculated in a 96-well plate at 1500 NCI-H1373 per well, and the plate was placed in an incubator overnight. The next day, test compounds were formulated in 10 mM stock solution by using DMSO and 3-fold diluted in gradient from a maximum concentration of 10 μM by using RPMI-1640 medium, and 10 gradient concentrations were set with 2 parallel wells per concentration gradient. After 6 days of incubation, 100 μL of Cell Titer Blue working solution was added to each well and the chemiluminescence value was read in a microplate reader. IC50 was calculated using GraphPad Prism7.0 software.

The next data set concerns the target PARP14 (Homo sapiens (Human), UniProt Q460N5). The experiment in a line: Enzymatic biochemical assay of PARP (chemiluminescence detection kit), PARP14. Here is the method: as §2
A further data set addresses TNKS2 (Homo sapiens (Human), UniProt Q9H2K2). The experiment in a line: Enzymatic biochemical assay of PARP (chemiluminescence detection kit), TNKS2. Here is the method:
as §2

The next data set has as its target TNKS1 (Homo sapiens (Human), UniProt O95271). The data set can be described thus: Enzymatic biochemical assay of PARP (chemiluminescence detection kit), TNKS1. Here is the method: as §2
The test system of another data set is MDR1. The data set can be described thus: MDCKII-MDR1 cell permeability assay. The settings on record: dog, MDCK-MDR1, 1 μM test compound; for Papp A→B at 2 h, 1 μM: apical to basolateral; for Papp B→A at 2 h, 1 μM: basolateral to apical. Type of data set: in vitro ADME. Here is the method: as §1

pIC50: −log10 of the molar value. A value given as a limit tells only on which side of the number the result lay.

Chain of PARP7 (Q7Z3E1 whole entry): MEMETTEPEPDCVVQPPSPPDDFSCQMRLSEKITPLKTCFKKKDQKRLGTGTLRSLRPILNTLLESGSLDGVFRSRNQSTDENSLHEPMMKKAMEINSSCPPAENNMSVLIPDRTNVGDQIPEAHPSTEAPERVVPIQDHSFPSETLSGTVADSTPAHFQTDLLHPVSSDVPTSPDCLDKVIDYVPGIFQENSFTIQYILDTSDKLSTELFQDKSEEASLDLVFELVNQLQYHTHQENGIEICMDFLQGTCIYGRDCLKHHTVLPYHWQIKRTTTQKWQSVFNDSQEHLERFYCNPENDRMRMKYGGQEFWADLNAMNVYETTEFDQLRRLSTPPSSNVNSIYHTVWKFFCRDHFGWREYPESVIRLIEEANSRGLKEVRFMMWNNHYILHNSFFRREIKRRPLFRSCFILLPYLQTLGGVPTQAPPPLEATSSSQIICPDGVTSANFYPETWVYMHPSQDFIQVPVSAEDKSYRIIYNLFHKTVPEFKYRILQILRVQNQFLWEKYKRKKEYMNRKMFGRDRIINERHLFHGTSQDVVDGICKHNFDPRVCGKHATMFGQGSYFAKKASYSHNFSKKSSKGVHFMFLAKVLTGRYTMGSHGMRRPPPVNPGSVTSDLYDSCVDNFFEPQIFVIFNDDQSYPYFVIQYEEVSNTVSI
Chain of TNKS2 (Q9H2K2 whole entry): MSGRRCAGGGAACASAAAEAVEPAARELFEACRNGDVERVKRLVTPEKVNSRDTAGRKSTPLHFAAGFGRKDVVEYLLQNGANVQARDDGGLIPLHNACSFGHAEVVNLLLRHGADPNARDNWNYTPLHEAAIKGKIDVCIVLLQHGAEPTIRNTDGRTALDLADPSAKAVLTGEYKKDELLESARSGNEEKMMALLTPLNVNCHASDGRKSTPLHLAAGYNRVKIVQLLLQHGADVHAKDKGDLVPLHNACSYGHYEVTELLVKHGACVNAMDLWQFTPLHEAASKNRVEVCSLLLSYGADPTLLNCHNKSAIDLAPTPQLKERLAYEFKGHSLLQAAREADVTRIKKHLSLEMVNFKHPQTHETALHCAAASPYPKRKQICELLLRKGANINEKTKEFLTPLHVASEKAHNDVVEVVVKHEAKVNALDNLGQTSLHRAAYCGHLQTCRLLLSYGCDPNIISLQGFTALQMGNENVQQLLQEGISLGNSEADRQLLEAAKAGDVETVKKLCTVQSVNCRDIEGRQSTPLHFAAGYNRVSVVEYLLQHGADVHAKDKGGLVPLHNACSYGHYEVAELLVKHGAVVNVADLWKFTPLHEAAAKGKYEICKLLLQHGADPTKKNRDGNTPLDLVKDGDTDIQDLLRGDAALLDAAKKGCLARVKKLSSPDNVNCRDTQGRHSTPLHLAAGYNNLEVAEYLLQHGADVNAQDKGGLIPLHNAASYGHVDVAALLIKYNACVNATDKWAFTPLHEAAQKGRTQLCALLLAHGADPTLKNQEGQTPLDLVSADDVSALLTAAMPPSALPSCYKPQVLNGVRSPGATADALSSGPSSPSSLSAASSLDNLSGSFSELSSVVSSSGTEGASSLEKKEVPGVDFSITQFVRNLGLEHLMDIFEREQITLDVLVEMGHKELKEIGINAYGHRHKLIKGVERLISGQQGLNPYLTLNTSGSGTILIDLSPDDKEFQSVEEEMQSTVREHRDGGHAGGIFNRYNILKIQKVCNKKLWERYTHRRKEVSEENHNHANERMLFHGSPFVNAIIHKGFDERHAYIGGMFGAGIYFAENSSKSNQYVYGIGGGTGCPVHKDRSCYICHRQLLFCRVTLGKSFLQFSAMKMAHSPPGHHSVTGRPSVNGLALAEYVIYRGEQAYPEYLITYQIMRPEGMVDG
Chain of TNKS1 (O95271 whole entry): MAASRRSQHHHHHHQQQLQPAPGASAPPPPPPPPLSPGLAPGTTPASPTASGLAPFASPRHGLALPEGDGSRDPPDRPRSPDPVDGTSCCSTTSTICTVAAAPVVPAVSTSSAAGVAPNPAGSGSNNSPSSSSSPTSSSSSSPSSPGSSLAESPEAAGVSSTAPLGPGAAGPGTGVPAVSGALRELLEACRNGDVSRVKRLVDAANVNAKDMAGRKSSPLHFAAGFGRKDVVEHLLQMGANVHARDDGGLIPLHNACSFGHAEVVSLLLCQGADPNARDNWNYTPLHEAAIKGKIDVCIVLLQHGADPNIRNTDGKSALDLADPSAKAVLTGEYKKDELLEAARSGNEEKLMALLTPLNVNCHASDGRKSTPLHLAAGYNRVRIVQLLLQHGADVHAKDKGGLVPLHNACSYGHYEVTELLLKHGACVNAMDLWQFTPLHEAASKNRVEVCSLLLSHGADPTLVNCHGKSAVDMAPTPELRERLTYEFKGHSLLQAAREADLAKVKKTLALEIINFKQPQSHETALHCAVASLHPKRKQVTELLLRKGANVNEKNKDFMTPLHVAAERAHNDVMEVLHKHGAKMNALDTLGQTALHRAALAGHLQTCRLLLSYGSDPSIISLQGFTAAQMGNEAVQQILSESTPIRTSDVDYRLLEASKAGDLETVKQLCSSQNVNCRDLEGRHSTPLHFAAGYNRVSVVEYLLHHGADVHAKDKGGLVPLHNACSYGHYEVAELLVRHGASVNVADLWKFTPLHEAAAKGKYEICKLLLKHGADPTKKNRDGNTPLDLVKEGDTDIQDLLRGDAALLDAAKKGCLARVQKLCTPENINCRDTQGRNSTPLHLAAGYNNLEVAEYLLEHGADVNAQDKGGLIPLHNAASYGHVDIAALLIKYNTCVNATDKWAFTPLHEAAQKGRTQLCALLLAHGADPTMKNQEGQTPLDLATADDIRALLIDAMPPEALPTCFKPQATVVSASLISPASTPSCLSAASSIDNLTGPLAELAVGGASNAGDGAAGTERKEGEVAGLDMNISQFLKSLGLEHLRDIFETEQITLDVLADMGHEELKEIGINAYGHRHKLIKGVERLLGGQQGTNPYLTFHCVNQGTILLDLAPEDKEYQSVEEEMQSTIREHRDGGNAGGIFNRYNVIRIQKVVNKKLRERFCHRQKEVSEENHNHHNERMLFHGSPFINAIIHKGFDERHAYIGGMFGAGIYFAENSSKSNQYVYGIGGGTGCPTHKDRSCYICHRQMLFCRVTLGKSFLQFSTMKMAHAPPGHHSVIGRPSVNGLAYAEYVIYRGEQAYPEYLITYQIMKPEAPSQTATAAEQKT
Chain of PARP1 (P09874 whole entry): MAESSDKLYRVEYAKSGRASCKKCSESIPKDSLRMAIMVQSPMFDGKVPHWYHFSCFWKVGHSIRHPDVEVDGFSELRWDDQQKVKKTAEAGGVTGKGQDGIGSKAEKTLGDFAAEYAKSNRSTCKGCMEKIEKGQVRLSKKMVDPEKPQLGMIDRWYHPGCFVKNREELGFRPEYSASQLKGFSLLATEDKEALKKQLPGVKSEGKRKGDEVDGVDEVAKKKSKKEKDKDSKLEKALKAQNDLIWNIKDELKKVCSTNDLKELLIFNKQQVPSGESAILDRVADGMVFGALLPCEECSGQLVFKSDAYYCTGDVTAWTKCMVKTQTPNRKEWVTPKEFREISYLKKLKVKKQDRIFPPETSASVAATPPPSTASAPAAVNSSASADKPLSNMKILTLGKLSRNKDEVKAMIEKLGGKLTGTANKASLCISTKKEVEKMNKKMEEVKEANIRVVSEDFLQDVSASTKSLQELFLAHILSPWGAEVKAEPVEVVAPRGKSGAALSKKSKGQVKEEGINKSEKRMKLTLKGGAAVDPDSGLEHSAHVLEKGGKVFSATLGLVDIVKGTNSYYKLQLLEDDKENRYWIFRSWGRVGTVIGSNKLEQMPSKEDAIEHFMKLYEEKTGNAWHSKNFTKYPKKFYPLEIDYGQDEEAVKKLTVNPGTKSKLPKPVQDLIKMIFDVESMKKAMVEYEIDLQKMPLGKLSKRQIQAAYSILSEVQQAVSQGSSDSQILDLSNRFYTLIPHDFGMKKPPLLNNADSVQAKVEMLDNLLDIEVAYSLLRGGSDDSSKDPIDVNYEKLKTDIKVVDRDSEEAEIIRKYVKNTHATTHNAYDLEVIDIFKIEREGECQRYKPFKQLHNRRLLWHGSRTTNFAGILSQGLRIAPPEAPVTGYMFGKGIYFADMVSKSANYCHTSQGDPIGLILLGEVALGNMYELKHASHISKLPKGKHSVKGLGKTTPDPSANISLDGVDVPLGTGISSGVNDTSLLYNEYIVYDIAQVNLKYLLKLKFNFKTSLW

With `C[C@@H](COCCC(=O)N1CCN(c2ncc(C(F)(F)F)cn2)CC1)Nc1cn[nH]c(=O)c1C(F)(F)F` [Comparative example, reference compound], the “Papp (A-B)” value with MDCKII-MDR1 cells (apical to basolateral) is given as 5.16 10-6, cm/s. For the same molecule, the “Papp (B-A)” value in the data set on MDCKII-MDR1 cells (basolateral to apical) is 49.43 10-6, cm/s. Besides, the “T1/2” value in data set [1] was under 30 min.

`C[C@@H](COCc1cc2n(n1)CCN(c1ncc(C(F)(F)F)cn1)C2)Nc1cn[nH]c(=O)c1C(F)(F)F` [Compound 1]: the pIC50 is 7.30 to 8.00 on PARP7; under 6.00 on PARP1; over 7.30 in the data set on NCI-H1373 cells; under 5.00 on PARP14; under 5.00 against TNKS2; under 5.00 against TNKS1. In data set [1] (liver microsomes), this molecule registered a half-life at 0.5 μM of over 30 min.

On to `C[C@@H](COCc1nn2c(c1Cl)CN(c1ncc(C(F)(F)F)cn1)CC2)Nc1cn[nH]c(=O)c1C(F)(F)F` [Compound 13, (S)-5-((1-((3-chloro-5-(5-(trifluoromethyl)pyrimidin-2-yl)-4,5,6,7-tetrahydropyrazolo[1,5-a]pyrazin-2-yl)methoxy)propan-2-yl)amino)-4-(trifluoromethyl)pyridazin-3(2H)-one], for which the negative-log IC50 (pIC50) on PARP7 was 7.30 to 8.00. Further, the pIC50 with NCI-H1373 cells is over 7.30. Further, in the data set with MDR1, the efflux ratio at 2 h, 1 μM was found to be 2.28; the Papp A→B at 2 h, 1 μM was found to be 6.67 ×10⁻⁶ cm/s; the Papp B→A at 2 h, 1 μM is 14.8 ×10⁻⁶ cm/s.

As for `CSc1cnc(N2CCn3nc(COC[C@H](C)Nc4cn[nH]c(=O)c4C(F)(F)F)cc3C2)nc1` [Compound 39, (S)-5-((1-((5-(5-(methylthio)pyrimidin-2-yl)-4,5,6,7-tetrahydropyrazolo[1,5-a]pyrazin-2-yl)methoxy)propan-2-yl)amino)-4-(trifluoromethyl)pyridazin-3(2H)-one], the pIC50 in the data set with NCI-H1373 cells was over 7.30. Also, in the data set on MDR1, the efflux ratio at 2 h, 1 μM was found to be 4.09; the Papp A→B at 2 h, 1 μM amounted to 8.82 ×10⁻⁶ cm/s; the Papp B→A at 2 h, 1 μM came out at 35.5 ×10⁻⁶ cm/s.

For the origin of these results see patent US20240158406A1, “PIPERAZINE DERIVATIVE AND USE THEREOF IN MEDICINE” (CHENGDU BAIYU PHARMACEUTICAL CO., LTD., priority 2021, published 2024).
